Assay results from patent US11903386B2, “Strigolactone analogs and their usage in plant control” (King Abdullah University of Science and Technology, priority 2016, dated 2024).
Entries after “also recorded” stand apart in the source; their conditions may differ.

Key:
OsD14 = target: T1, OsD14 (Oryza sativa subsp. japonica, UniProt Q10QA5); assay: In vitro hydrolysis assay with OsD14 (HPLC); format: biochemical, rice; conditions: 10 μM substrate, 37° C.
T1 construct: made in house; host or cells: E. coli BL21 (DE3)
T1 sequence (Q10QA5 1-318): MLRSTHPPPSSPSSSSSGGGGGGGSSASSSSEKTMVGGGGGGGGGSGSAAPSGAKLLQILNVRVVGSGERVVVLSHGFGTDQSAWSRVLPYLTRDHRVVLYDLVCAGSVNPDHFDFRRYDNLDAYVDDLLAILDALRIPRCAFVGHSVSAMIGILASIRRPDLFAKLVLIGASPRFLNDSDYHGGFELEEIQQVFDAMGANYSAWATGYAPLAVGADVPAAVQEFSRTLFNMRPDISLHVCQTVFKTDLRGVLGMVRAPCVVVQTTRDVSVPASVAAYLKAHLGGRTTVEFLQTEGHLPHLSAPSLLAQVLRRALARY
Description: Striga hermonthica ShHTL7 cDNA, GenBank accession KR013127 was kindly provided by Prof. Tadao Asami (The University of Tokyo, Japan). Arabidopsis thaliana D14 (AtD14) cDNA, GenBank accession AY097402 was synthesized and cloned into pUC57 (GenScript). ShHTL7 and OsD14 cDNAs were amplified by RT-PCR using the primers shown in Table 2, digested with BamHI and XhoI, and ligated into BamHI/XhoI digested pGEX-6P-1 expression vector (GE Healthcare). Integrity of plasmids was confirmed by sequencing (KAUST Bioscience Core Lab). The plasmids were then transformed into E. coli BL21 (DE3) cells. The cells were grown in LB broth containing ampicillin ([…]), incubated at 37° C. until OD600 of 0.6 and induced with 0.1 mM isopropyl-β-D-thiogalactopyranoside (IPTG) at 16° C. for 16 h. […]
The hydrolysis of GR24 and MPs by ShHTL7/OsD14 was performed in a total volume of 0.5 ml of PBS buffer containing 10 μM of substrate. […] Hydrolysis of substrates was monitored by HPLC analysis using an Zorbax Eclipse Plus C18 column (3.5 μm, 2.1×150 mm), eluted by a gradient from 10% to 90% acetonitrile in water within 15 min and keeping final condition for 4 min. […] Eluted compounds were detected using a Diode Array Detector. Amounts of remaining substrates were determined by calculating corresponding peaks, in comparison to that of internal standard.

rice leaf segments = assay: Dark-induced leaf senescence of rice leaf segments; format: in vivo, O. sativa, var. Shiokari
Method: One week old rice (O. sativa, var. Shiokari) seedlings were established as mentioned above. Uniform seedlings were transferred to 50 ml tubes containing half strength Hoaglands nutrient solution for 7 days and grown in an incubator under white fluorescent light (130-180 μM m^−2 s^−1) with 16 h:8 h (L/D) at 28° C. for one week. Leaf segments of 2 cm were cut from middle part of third leaves of rice plants. Each segment was put in a well (in 24-well plates) containing 2 ml of 2.5 mM MES buffer with 0.05% Tween-20, and incubated at 30° C. in the dark for 7 days. After application of MPs, color change, chlorophyll content, ion leakage and gene expression were monitored daily for 7 days.

[1] = test system: rice seedlings (Shiokari, d3, d10); assay: Growth and fresh biomass of hydroponically grown rice seedlings; format: in vivo; conditions: 2.5 μM, twice a week for three weeks
Method: Rice seeds (WT, d3, d10) were surface-sterilized by washing with 70% ethanol for 1 min and then with 2.5% sodium hypochlorite for 15 min. Seeds were then rinsed thoroughly with sterile MilliQ water and incubated in water for 2 days at 30° C. in the dark. Pre-germinated seeds were transferred to filter papers containing ½ strength MS medium in 90 mm petri dishes and incubated at 30° C. under fluorescent white light (130-180 μM m^−2 s^−1) for one week. Seven day-old seedlings were transferred to 50 ml falcon tubes (one seedling per tube) containing modified half-strength Hoagland nutrient solution and grown in greenhouse. Plants were treated with MPs at 2.5 μM-2.5×10-7 μM, using GR24 as positive control. The compounds were applied six times, twice a week. Number of tillers per plant, plant height and fresh biomass were measured at final harvest.

Arabidopsis seedlings = assay: Arabidopsis hypocotyl elongation assay; format: in vivo; conditions: 1.0 μM
Method: Sterilized Arabidopsis seeds were sown on half strength MS (with 0.5% sucrose+1% agar, 0.5 g L-1 MES, pH 5.7) plates supplemented with MPs or GR24 (at 1.0 μM). Plates were stored at 4° C. in darkness for 3 days. To initiate germination, plates were exposed to continuous white light for 24 h then transferred to continuous monochromatic red light (160 Lux, 22° C.) conditions for another 4 days. For hypocotyl length measurement, at least 30 seedlings were measured using the publically available ImageJ software (http://rsbweb.nih.gov/ij/) after taking digital photographs. Monochromatic red light source was applied as described previously (Wu and Yang, 2010). Light flow rates were measured using a Li250 quantum photometer (Li-Cor, Lincoln, NE, USA).

Row | SMILES | Hydrolysis rate by OsD14 (OsD14) | Transcript levels of Senescence Associated Genes Osl20 and Osl295 (rice leaf segments; after 5 days of treatment) | Change in leaf color, time relative to control (rice leaf segments; dark, leaf segments) | Change in leaf color, day observed (rice leaf segments; dark, leaf segments monitored 7 days) | Ion leakage compared to the control (rice leaf segments; first five days) | Ion leakage compared to the control (rice leaf segments; sixth and seventh day) | Chlorophyll content (rice leaf segments; third day) | Growth, senescence symptoms and biomass of rice seedlings [1] | Inhibition of hypocotyl growth (Arabidopsis seedlings)
1 | COC(=O)/C(=C/OC1C=C(C)C(=O)O1)c1ccc([N+](=O)[O-])cc1 (racemic) [MP1, (E)-methyl 3-(4-methyl-5-oxo-2,5-dihydrofuran-2-yloxy)-2-(4-nitrophenyl)acrylate] | highest hydrolysis rate |  |  |  |  |  |  |  | 
2 | COC(=O)/C(=C/OC1C=C(C)C(=O)O1)c1ccccc1 (racemic) [MP3, (E)-methyl 3-(4-methyl-5-oxo-2,5-dihydrofuran-2-yloxy)-2-phenylacrylate] | finally MP3 | more pronounced in MP3 treated samples | about two days earlier than the control | already on the third day after treatment | did not detect a difference | striking increase | clear reduction | stunted the growth and caused senescence symptoms; also recorded: growth retardation and senescence | 
3 | COC(=O)/C(=C/OC1C=C(C)C(=O)O1)c1ccc(Cl)cc1 (stereo not shown) [MP7] |  |  |  |  |  |  |  |  | stronger inhibitory effect than GR24
